Reference: publication PMC3192013 (ChemMedChem, 2011)

system: Stat3 (Stat3–Stat3:DNA complex, EMSA); assay: in vitro Stat3 inhibition; assay type: biochemical; settings: assay not given

IC50	Structure (SMILES)
> 300 µM	O=C(O)c1ccc(N(Cc2ccc(C3CCCCC3)cc2)C(=O)CO)cc1O [compound 47, primary alcohol 47]

system: Stat3 (Stat3–Stat3:DNA complex, EMSA); assay: EMSA, Stat3-Stat3:DNA disruption; assay type: biochemical; settings: nuclear extract

IC50	Structure (SMILES)
> 300 µM	Cc1ccc(S(=O)(=O)N(C)CC(=O)N(Cc2ccc(C3CCN(C(=O)C(F)(F)F)CC3)cc2)c2ccc(C(=O)O)c(O)c2)cc1 [27ka, 27 ka]
> 300 µM	Cc1ccc(S(=O)(=O)N(C)CC(=O)N(CC2CCN(c3ccc(C#N)cc3)CC2)c2ccc(C(=O)O)c(O)c2)cc1 [27jc, 27 jc]
> 300 µM	Cc1ccc(S(=O)(=O)N(C)CC(=O)N(Cc2ccc(C3CCNCC3)cc2)c2ccc(C(=O)O)c(O)c2)cc1 [27kb, 27 kb]
95 ± 9 µM	Cc1ccc(S(=O)(=O)NCC(=O)N(Cc2ccc(C3CCCCC3)cc2)c2ccc(C(=O)O)c(O)c2)cc1 [compound 41, SF-1-083]
> 300 µM	Cc1ccc(S(=O)(=O)NCC(=O)Nc2ccc(C(=O)O)c(O)c2)cc1 [compound 9, SF-1-082]
50 ± 15 µM	Cc1ccc(S(=O)(=O)N(C)CC(=O)N(Cc2ccc(C3CCN(S(=O)(=O)c4ccc(C#N)cc4)CC3)cc2)c2ccc(C(=O)O)c(O)c2)cc1 [27kg, 27 kg]
> 300 µM	Cc1ccc(S(=O)(=O)NCC(=O)N(Cc2ccccc2)c2ccc(C(=O)O)c(O)c2)cc1 [compound 13, 13]
> 300 µM	Cc1ccc(S(=O)(=O)N(C)CC(=O)N(CC2CCN(c3ncccn3)CC2)c2ccc(C(=O)O)c(O)c2)cc1 [27jd, 27 jd]
> 300 µM	Cc1ccc(S(=O)(=O)N(C)CC(=O)N(CC2CCCCC2)c2ccc(C(=O)O)c(O)c2)cc1 [27e, 27 e]
> 300 µM	Cc1ccc(S(=O)(=O)N(C)CC(=O)Nc2ccc(C(=O)O)c(O)c2)cc1 [compound 10, 10]
260 ± 47 µM	Cc1ccc(S(=O)(=O)N(C)CC(=O)N(Cc2ccc(C#N)cc2)c2ccc(C(=O)O)c(O)c2)cc1 [27c, SF-1-073]
194 ± 47 µM	Cc1ccc(S(=O)(=O)N(C)CC(=O)N(Cc2ccc(C(C)(C)C)cc2)c2ccc(C(=O)O)c(O)c2)cc1 [27f, SF-1-068]
> 300 µM	Cc1ccc(S(=O)(=O)N(CC(=O)N(Cc2ccccc2)c2ccc(C(=O)O)c(O)c2)C(=O)OC(C)(C)C)cc1 [compound 15, 15]
> 300 µM	Cc1ccc(S(=O)(=O)N(CC(=O)Nc2ccc(C(=O)O)c(O)c2)C(=O)OC(C)(C)C)cc1 [compound 11, 11]
45 ± 12 µM	Cc1ccc(S(=O)(=O)N(C)CC(=O)N(Cc2ccc(C3CCN(c4ccc(C#N)cc4)CC3)cc2)c2ccc(C(=O)O)c(O)c2)cc1 [27kd, 27 kd]
> 300 µM	Cc1ccc(S(=O)(=O)N(C)CC(=O)N(CC2CCN(C(=O)OC(C)(C)C)CC2)c2ccc(C(=O)O)c(O)c2)cc1 [27jb, 27 jb]
> 300 µM	Cc1ccc(S(=O)(=O)OCC(=O)N(Cc2ccccc2)c2ccc(C(=O)O)c(O)c2)cc1 [compound 12, SF-1-120]
> 300 µM	Cc1ccc(S(=O)(=O)N(C)CC(=O)N(Cc2ccc(C3CCN(C(=O)OC(C)(C)C)CC3)cc2)c2ccc(C(=O)O)c(O)c2)cc1 [27kc, 27 kc]

same assay, conditions: nuclear extract; Table 2 prints 295 ± 35

IC50	Structure (SMILES)
292 ± 35 µM	Cc1ccc(S(=O)(=O)N(C)CC(=O)N(Cc2ccccc2)c2ccc(C(=O)O)c(O)c2)cc1 [compound 14, SF-1-062]

same assay, conditions: read-out: [drawing 30] / IC50; nuclear extract

IC50	Structure (SMILES)
274 ± 10 µM	Cc1ccc(S(=O)(=O)N(C)CC(=O)N(Cc2ccc(-c3ccc(C#N)cc3)cc2)c2ccc(C(=O)O)c(O)c2)cc1 [27lf, 27 lf]
> 300 µM	Cc1ccc(S(=O)(=O)N(C)CC(=O)N(Cc2ccc(-c3cccc(C(N)=O)c3)cc2)c2ccc(C(=O)O)c(O)c2)cc1 [27lc, 27 lc]
191 ± 8 µM	COC(=O)c1cccc(-c2ccc(CN(C(=O)CN(C)S(=O)(=O)c3ccc(C)cc3)c3ccc(C(=O)O)c(O)c3)cc2)c1 [27la, 27 la]
> 300 µM	Cc1ccc(S(=O)(=O)N(C)CC(=O)N(Cc2ccc(-c3ccc(C(N)=O)cc3)cc2)c2ccc(C(=O)O)c(O)c2)cc1 [27lg, 27 lg]

same assay, conditions: read-out: [drawing 30] / IC50; nuclear extract; label printed 27 gld

IC50	Structure (SMILES)
141 ± 10 µM	COC(=O)c1ccc(-c2ccc(CN(C(=O)CN(C)S(=O)(=O)c3ccc(C)cc3)c3ccc(C(=O)O)c(O)c3)cc2)cc1 [27ld, 27 ld]

same assay, conditions: read-out: [drawing 31] / IC50; nuclear extract

IC50	Structure (SMILES)
43 ± 1.3 µM	Cc1ccc(S(=O)(=O)N(C)CC(=O)N(Cc2ccc(-c3ccc(-c4ccc(C(N)=O)cc4)cc3)cc2)c2ccc(C(=O)O)c(O)c2)cc1 [27nh, 27 nh]
